{"source": "paper PMC8422859", "about": "“A Novel Oral Arginase 1/2 Inhibitor Enhances the Antitumor Effect of PD-1 Inhibition in Murine Experimental Gliomas by Altering the Immunosuppressive Environment” (Frontiers in Oncology, 2021)", "key": {"recombinant human ARG1": {"biological_target": "T1, recombinant human ARG1 (Homo sapiens, UniProt P05089)", "T1 construct": "made in house; host or cells: E. coli", "T1 sequence (P05089 1-322)": "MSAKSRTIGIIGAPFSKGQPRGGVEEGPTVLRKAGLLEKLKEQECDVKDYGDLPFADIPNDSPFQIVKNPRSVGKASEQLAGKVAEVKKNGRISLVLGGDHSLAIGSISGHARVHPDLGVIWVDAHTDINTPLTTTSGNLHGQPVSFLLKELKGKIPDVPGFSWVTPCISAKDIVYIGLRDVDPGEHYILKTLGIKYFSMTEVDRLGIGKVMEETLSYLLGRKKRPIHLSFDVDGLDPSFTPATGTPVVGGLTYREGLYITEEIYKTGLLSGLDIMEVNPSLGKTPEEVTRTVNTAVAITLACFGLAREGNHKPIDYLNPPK", "assay": "Recombinant arginase activity assay, hARG1", "assay_type": "biochemical", "details": "1 h at 37°C, pH 7.4, 10 mM L-arginine, urea detection; read-out: Inhibition of recombinant hARG1: IC50", "method": "The inhibitory activity towards hARG1 and hARG2 enzymes was assessed using recombinant enzymes biosynthesized using a prokaryotic expression system (E. coli) and purified by fast protein liquid chromatography (FPLC). Briefly, recombinant enzymes were incubated with the tested compounds for 1 h at 37°C in the reaction buffer (100 mM sodium phosphate buffer, 130 mM NaCl, 1 mg/mL BSA, pH 7.4) containing substrate (10 mM L-arginine hydrochloride) and cofactor (200 µM MnCl2). The assay is based on the detection of urea, which is generated during the conversion of L-arginine into L-ornithine catalyzed by arginases. To visualize the product, we adding a mixture of reagent A (4 mM oPA, 50 mM boric acid, 1 M sulfuric acid, 0.03% Brij-35) and reagent B (4 mM NED, 50 mM boric acid, 1 M sulfuric acid, 0.03% Brij-35) in equal proportions. The absorbance was measured at 515 nm. The urea production in the absence of any tested compound was considered as maximal enzyme activity. The absorbance in the absence of arginase (background) was considered as zero activity. Two reference compounds OAT-81 (ABH, no. 222638-65-5) and OAT-90 (2-amino-6-borono-2-(2-(3-(2,4-dichlorophenyl)propyloamino)ethyl) hexanoic acid, and two novel inhibitors OAT-1617 and OAT-1746 (the last three synthesized at OncoArendi Therapeutics) were tested. Normalized values were analyzed using GraphPad Prism 7.0 software and the IC50 values were determined."}, "[1]": {"system": "glioma-associated CD11b+ cells", "assay": "RNA-seq of CD11b+ cells from tumor-bearing hemispheres", "assay_type": "in vivo, mouse", "method": "Immediately after sorting, CD11b^+ cells were centrifuged and lysed for further isolation of RNA using the RNeasy Plus Mini Kit (Qiagen, Germany). The integrity and quality of RNA were assessed on an Agilent 2100 Bioanalyzer with an RNA 6000 Pico Kit (Agilent Technologies, CA, USA). A total of 9 strand-specific RNA libraries were prepared for sequencing (2-3 biological replicates/treatment) using a KAPA Stranded mRNA-Seq Kit (Kapa Biosystems, MA, USA). Poly-A mRNAs were purified from 100 ng of total RNA using poly-T-oligo-magnetic beads (Kapa Biosystems, MA, USA). mRNAs were fragmented and a first-strand cDNA was synthesized using reverse transcriptase and random hexamers. […] Final libraries were analyzed using Bioanalyzer and Agilent DNA High Sensitivity chips (Agilent Technologies, Santa Clara, CA, USA) to confirm fragment sizes (~300 bp). Quantification was performed using a Quantus fluorometer and the QuantiFluor dsDNA System (Promega, Madison, Wisconsin, US). […]\nIllumina-specific adapters, short reads, and low quality 5’ and 3’ bases were filtered out in the FASTQ format files using Trimmomatic ([27]) tool (version 0.36). The resulting RNA sequencing reads were aligned to a reference mouse genome sequence (mm10) with STAR aligner ([28]) (version 2.6.1b) using the two pass Mode Basic option. […]"}, "[2]": {"system": "U87-MG human glioma cells", "assay": "MTT viability assay, U87-MG", "assay_type": "cell-based", "details": "24 h", "method": "Cell viability was assessed using MTT metabolism assay (U87 and BV2 cells) or MTS CellTiter 96® AQueous One Solution Cell Proliferation Assay (Promega) for the primary murine microglia cultures. Cells were cultured either in 96-well plates (U87 at density of 1×10^4) or 24-well plates (BV2 at density of 4×10^4 and primary microglia 8×10^4) with the indicated concentrations of the inhibitor or H2O (vehicle) for 24 h. MTT solution (Sigma Aldrich) was added to each well to a final concentration of 0.5 mg/mL. After 1 h of incubation at 37°C, water-insoluble dark blue formazan crystals were dissolved in DMSO. Optical densities (OD) were measured at 570 and 620 nm using a scanning multiwell spectrophotometer. The MTT assay was performed according to the manufacturer’s protocol. All measurements were carried out on three independent cell passages, in triplicates."}}, "data": [{"smiles": "CN(C)C[C@@H]1CC[C@@H](CCB(O)O)C[C@]1(N)C(=O)O", "note": "[OAT-1746]", "values": [{"measurement": "IC50", "setting": "recombinant human ARG1", "result": 28, "unit": "nM"}, {"measurement": "differentially expressed genes versus CTR (padj<0.05)", "setting": "[1]", "result": "over 1800 genes"}, {"measurement": "reduction of the cell viability in U87-MG glioma cells", "setting": "[2]; 1 mM", "result": 20, "unit": "%"}, {"measurement": "viability of U87-MG cells (toxicity)", "setting": "[2]; concentrations up to 1000 µM", "result": "a decrease in the viability of U87-MG cells was observed at the highest concentration"}]}]}
